According to patent publication US7417156B2, “Orally active, antimalarial, anticancer, artemisinin-derived trioxane dimers” (Johns Hopkins University, priority 2002, dated 2008):
Like-named read-outs stand apart in the source and are kept apart here.

How the values were obtained:
[1] = test system: HOP-92; test: NCI 60 cell line panel screen (SRB); format: cell-based, human
[2] = test system: RXF 393; test: NCI 60 cell line panel screen (SRB); format: cell-based, human
[3] = test system: UACC-257; test: NCI 60 cell line panel screen (SRB); format: cell-based, human
[4] = test system: T-47D; test: NCI 60 cell line panel screen (SRB); format: cell-based, human
[5] = test system: CAKI-1; test: NCI 60 cell line panel screen (SRB); format: cell-based, human
[6] = test system: SK-OV-3; test: NCI 60 cell line panel screen (SRB); format: cell-based, human
[7] = test system: EKVX; test: NCI 60 cell line panel screen (SRB); format: cell-based, human
[8] = test system: NCI/ADR-RES; test: NCI 60 cell line panel screen (SRB); format: cell-based, human
[9] = test system: chloroquine-sensitive P. falciparum (NF54); test: Antimalarial activity in vitro, [3H]hypoxanthine incorporation; format: cell-based
[10] = test system: NCI-H23; test: NCI 60 cell line panel screen (SRB); format: cell-based, human
[11] = test system: NCI-H460; test: NCI 60 cell line panel screen (SRB); format: cell-based, human
[12] = test system: PC-3; test: NCI 60 cell line panel screen (SRB); format: cell-based, human
[13] = test system: OVCAR-3; test: NCI 60 cell line panel screen (SRB); format: cell-based, human
[14] = test system: HOP-62; test: NCI 60 cell line panel screen (SRB); format: cell-based, human; details: HOP-62 (Non-Small Cell Lung Cancer)
[15] = test system: ACHN; test: NCI 60 cell line panel screen (SRB); format: cell-based, human
[16] = test system: 60 cell line panel; format: cell-based
[17] = test system: SF-539; test: NCI 60 cell line panel screen (SRB); format: cell-based, human
[18] = test system: BT-549; test: NCI 60 cell line panel screen (SRB); format: cell-based, human
[19] = test system: HCT-116; test: NCI 60 cell line panel screen (SRB); format: cell-based, human
[20] = test system: IGROVI; test: NCI 60 cell line panel screen (SRB); format: cell-based, human
[21] = test system: OVCAR-8; test: NCI 60 cell line panel screen (SRB); format: cell-based, human
[22] = test system: RPMI-8226; test: NCI 60 cell line panel screen (SRB); format: cell-based, human
[23] = test system: SNB-19; test: NCI 60 cell line panel screen (SRB); format: cell-based, human
[24] = test system: SK-MEL-28; test: NCI 60 cell line panel screen (SRB); format: cell-based, human
[25] = test system: NCI-H322M; format: cell-based
[26] = mean value over the 60 cell line panel

## CC1CCC2C(C)C(CC(COC(=O)c3cc[n+]([O-])cc3)CC3OC4OC5(C)CCC6C(C)CCC(C3C)C46OO5)OC3OC4(C)CCC1C32OO4 (centres unmarked) [Compound 13, bis-trioxane primary alcohol isonicotinate N-oxide]
[1]; HOP-92 (Non-Small Cell Lung Cancer), LC50: PG=−50
  Log10LC50: −4.74 log10M
[1]; HOP-92 (Non-Small Cell Lung Cancer), TGI: PG=0
  Log10TGI50: −5.27 log10M
[1]; Non-Small Cell Lung Cancer, HOP-92
  Log10GI50: −8.04
[2]; RXF 393 (Renal Cancer), LC50: PG=−50
  Log10LC50: >−4.30 log10M
[2]; RXF 393 (Renal Cancer), TGI: PG=0
  Log10TGI50: −4.69 log10M
[2]; Renal Cancer, RXF 393
  Log10GI50: −5.20
[3]; Melanoma, UACC-257
  Log10GI50: −5.15
[3]; UACC-257 (Melanoma), LC50: PG=−50
  Log10LC50: >−4.30 log10M
[3]; UACC-257 (Melanoma), TGI: PG=0
  Log10TGI50: −4.65 log10M
[4]; Breast Cancer, T-47D
  Log10GI50: <−8.30
[4]; T-47D (Breast Cancer), LC50: PG=−50
  Log10LC50: >−4.30 log10M
[4]; T-47D (Breast Cancer), TGI: PG=0
  Log10TGI50: −5.36 log10M
[5]; CAKI-1 (Renal Cancer), LC50: PG=−50
  Log10LC50: −4.66 log10M
[5]; CAKI-1 (Renal Cancer), TGI: PG=0
  Log10TGI50: −5.11 log10M
[5]; Renal Cancer, CAKI-1
  Log10GI50: −7.36
[6]; Ovarian Cancer, SK-OV-3
  Log10GI50: −5.13
[6]; SK-OV-3 (Ovarian Cancer), LC50: PG=−50
  Log10LC50: −4.31 log10M
[6]; SK-OV-3 (Ovarian Cancer), TGI: PG=0
  Log10TGI50: −4.72 log10M
[7]; EKVX (Non-Small Cell Lung Cancer), LC50: PG=−50
  Log10LC50: −4.59 log10M
[7]; EKVX (Non-Small Cell Lung Cancer), TGI: PG=0
  Log10TGI50: −5.08 log10M
[7]; Non-Small Cell Lung Cancer, EKVX
  Log10GI50: −8.19
[8]; Breast Cancer, NCI/ADR-RES
  Log10GI50: −7.60
[8]; NCI/ADR-RES (Breast Cancer), LC50: PG=−50
  Log10LC50: −4.65 log10M
[8]; NCI/ADR-RES (Breast Cancer), TGI: PG=0
  Log10TGI50: −5.18 log10M
[9]
  IC50: sub-nanomolar
[9]; Table I, NF54 strain, read-out: IC50
  IC50: 0.53 nM
[10]; NCI-H23 (Non-Small Cell Lung Cancer), LC50: PG=−50
  Log10LC50: −4.62 log10M
[10]; NCI-H23 (Non-Small Cell Lung Cancer), TGI: PG=0
  Log10TGI50: −5.17 log10M
[10]; Non-Small Cell Lung Cancer, NCI-H23
  Log10GI50: <−8.30
[11]; NCI-H460 (Non-Small Cell Lung Cancer), LC50: PG=−50
  Log10LC50: −4.36 log10M
[11]; NCI-H460 (Non-Small Cell Lung Cancer), TGI: PG=0
  Log10TGI50: −4.92 log10M
[11]; Non-Small Cell Lung Cancer, NCI-H460
  Log10GI50: <−8.30
[12]; PC-3 (Prostate Cancer), LC50: PG=−50
  Log10LC50: −4.63 log10M
[12]; PC-3 (Prostate Cancer), TGI: PG=0
  Log10TGI50: −5.11 log10M
[12]; Prostate Cancer, PC-3
  Log10GI50: <−8.30
[13]; OVCAR-3 (Ovarian Cancer), LC50: PG=−50
  Log10LC50: −4.51 log10M
[13]; OVCAR-3 (Ovarian Cancer), TGI: PG=0
  Log10TGI50: −4.98 log10M
[13]; Ovarian Cancer, OVCAR-3
  Log10GI50: −7.75
[14]; LC50: PG=−50
  Log10LC50: −4.54 log10M
[14]; TGI: PG=0
  Log10TGI50: −4.91 log10M
[15]; ACHN (Renal Cancer), LC50: PG=−50
  Log10LC50: −4.79 log10M
[15]; ACHN (Renal Cancer), TGI: PG=0
  Log10TGI50: −6.57 log10M
[15]; Renal Cancer, ACHN
  Log10GI50: <−8.30
[16]
  Log10GI50 Delta: 0.92
  Log10GI50 Range: 3.22
[16]; 60 cell line panel
  Log10LC50 Delta: 1.27
  Log10LC50 Range: 1.49
  Log10TGI50 Delta: 3.15
  Log10TGI50 Range: 4.00
[16]; mean over panel
  Log10GI50 MG MID: −7.38
[16]; [26]
  Log10LC50 MG MID: −4.51 log10M
  Log10TGI50 MG MID: −5.15 log10M
[17]; CNS Cancer, SF-539
  Log10GI50: <−8.30
[17]; SF-539 (CNS Cancer), LC50: PG=−50
  Log10LC50: −4.56 log10M
[18]; BT-549 (Breast Cancer), LC50: PG=−50
  Log10LC50: −4.61 log10M
[18]; BT-549 (Breast Cancer), TGI: PG=0
  Log10TGI50: −5.07 log10M
[18]; Breast Cancer, BT-549
  Log10GI50: <−8.30
[19]; Colon Cancer, HCT-116
  Log10GI50: <−8.30
[19]; HCT-116 (Colon Cancer), LC50: PG=−50
  Log10LC50: >−4.30 log10M
[19]; HCT-116 (Colon Cancer), TGI: PG=0
  Log10TGI50: −5.06 log10M
[20]; IGROVI (Ovarian Cancer), LC50: PG=−50
  Log10LC50: >−4.30 log10M
[20]; IGROVI (Ovarian Cancer), TGI: PG=0
  Log10TGI50: >−4.30 log10M
[20]; Ovarian Cancer, IGROVI
  Log10GI50: −5.36
[21]; OVCAR-8 (Ovarian Cancer), LC50: PG=−50
  Log10LC50: >−4.30 log10M
[21]; Ovarian Cancer, OVCAR-8
  Log10GI50: −7.69
[22]; Leukemia, RPMI-8226
  Log10GI50: <−8.30
[22]; RPMI-8226 (Leukemia), LC50: PG=−50
  Log10LC50: >−4.30 log10M
[22]; RPMI-8226 (Leukemia), TGI: PG=0
  Log10TGI50: >−4.30 log10M
[23]; CNS Cancer, SNB-19
  Log10GI50: −5.08
[23]; SNB-19 (CNS Cancer), LC50: PG=−50
  Log10LC50: >−4.30 log10M
[23]; SNB-19 (CNS Cancer), TGI: PG=0
  Log10TGI50: >−4.30 log10M
[24]; Melanoma, SK-MEL-28
  Log10GI50: −5.13
[24]; SK-MEL-28 (Melanoma), LC50: PG=−50
  Log10LC50: −4.34 log10M
[24]; SK-MEL-28 (Melanoma), TGI: PG=0
  Log10TGI50: −4.73 log10M
[25]; NCI-H322M (Non-Small Cell Lung Cancer), LC50: PG=−50
  Log10LC50: −4.59 log10M
[25]; NCI-H322M (Non-Small Cell Lung Cancer), TGI: PG=0
  Log10TGI50: −5.06 log10M
[25]; Non-Small Cell Lung Cancer, NCI-H322M
  Log10GI50: −6.26
